Laboratory results from the supplement of paper PMC10307832.

Key:
Experiment in all cases: relative viability (nuclei count vs DMSO), 5 days (fraction); higher = more cells survive
[1] = compound: COc1cc2nc(N3CCCN(C)CC3)nc(NC3CCN(Cc4ccccc4)CC3)c2cc1OC + COc1cccc2cc(-c3nc([C@H]4CC[C@H](C(=O)O)CC4)n4ncnc(N)c34)[nH]c12 [OSI-027] (partner 0.5 µM)
Summary of the method: (§1)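 Lung cancer cell lines were pin-tool dosed in 1536-well plates on the day after seeding, with either a lone drug or a fixed anchor-drug dose plus five library-drug doses (not always all listed) in √10 steps. Nuclei were counted on 4× images after 5 days. Relative viability is the ratio of treated-well to vehicle-well nuclei counts, with each value a median of duplicate plates.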

AZD6482 + OSI-027 = compound: Cc1cc([C@@H](C)Nc2ccccc2C(=O)O)c2nc(N3CCOCC3)cc(=O)n2c1 [AZD6482] + COc1cccc2cc(-c3nc([C@H]4CC[C@H](C(=O)O)CC4)n4ncnc(N)c34)[nH]c12 [OSI-027] (partner 0.5 µM)
Summary of the method: as §1

[2] = compound: COc1cc2nc(N3CCCN(C)CC3)nc(NC3CCN(Cc4ccccc4)CC3)c2cc1OC + C[C@@H](Oc1cc(-c2cnn(C3CCNCC3)c2)cnc1N)c1c(Cl)ccc(F)c1Cl [Crizotinib] (partner 1 µM)
Summary of the method: as §1

[3] = compound: COc1cc2nc(N3CCCN(C)CC3)nc(NC3CCN(Cc4ccccc4)CC3)c2cc1OC + Nc1ncn([C@H]2C[C@H](O)[C@@H](CO)O2)c(=O)n1 [Decitabine] (partner 2 µM)
Summary of the method: as §1

Row | Cell Line | relative viability ([1]; first compound 0.2 µM) | relative viability ([1]; first compound 0.6325 µM) | relative viability ([1]; first compound 2 µM) | relative viability ([1]; first compound 6.325 µM) | relative viability (AZD6482 + OSI-027; first compound 0.08 µM) | relative viability (AZD6482 + OSI-027; first compound 0.253 µM) | relative viability (AZD6482 + OSI-027; first compound 0.8 µM) | relative viability (AZD6482 + OSI-027; first compound 2.53 µM) | relative viability (AZD6482 + OSI-027; first compound 8 µM) | relative viability ([2]; first compound 0.2 µM) | relative viability ([2]; first compound 0.6325 µM) | relative viability ([2]; first compound 2 µM) | relative viability ([2]; first compound 6.325 µM) | relative viability ([3]; first compound 0.2 µM) | relative viability ([3]; first compound 0.6325 µM) | relative viability ([3]; first compound 2 µM) | relative viability ([3]; first compound 6.325 µM)
1 | NCI-H838 | 0.433 | 0.429 | 0.362 | 0.375 | 0.334 | 0.378 | 0.355 | 0.199 | 0.27 | 0.81 | 0.878 | 0.873 | 0.828 | 0.45 | 0.466 | 0.508 | 0.474
2 | NCI-H1755 | 0.791 | 0.663 | 0.671 | 0.518 | 0.605 | 0.595 | 0.662 | 0.486 | 0.494 | 0.868 | 0.792 | 0.919 | 0.814 | 0.657 | 0.669 | 0.689 | 0.663
3 | HCC-78 | 0.381 | 0.33 | 0.329 | 0.377 | 0.316 | 0.315 | 0.32 | 0.265 | 0.303 | 0.333 | 0.377 | 0.332 | 0.352 | 0.642 | 0.683 | 0.729 | 0.712
4 | IA-LM |  |  |  |  |  |  |  |  |  |  | 0.802 | 0.926 | 0.42 |  |  |  | 
5 | NCI-H322M | 0.546 | 0.504 | 0.595 | 0.423 | 0.523 | 0.497 | 0.531 | 0.317 | 0.414 | 0.873 | 1.01 | 0.973 | 0.915 | 0.717 | 0.708 | 0.768 | 0.708
6 | NCI-H3122 | 0.935 | 0.877 | 0.992 | 0.729 | 1.01 | 1.01 | 0.89 |  | 0.465 | 0.256 | 0.305 | 0.293 | 0.267 | 0.398 | 0.451 | 0.461 | 0.363
7 | COR-L23 | 0.882 | 0.735 | 0.802 | 0.765 | 0.552 | 0.791 | 0.911 | 0.611 | 0.751 | 0.471 | 0.562 | 0.711 | 0.673 | 0.466 | 0.477 | 0.527 | 0.471
8 | NCI-H2087 | 0.469 | 0.428 | 0.547 | 0.452 | 0.495 | 0.43 | 0.46 |  | 0.332 | 0.929 | 0.646 | 0.777 | 0.716 | 0.318 | 0.261 | 0.219 | 0.212
9 | LC-2-ad | 0.849 | 0.841 | 0.83 | 0.761 | 0.734 | 0.757 | 0.807 | 0.581 | 0.565 | 0.398 | 0.484 | 0.475 | 0.43 | 0.764 | 0.741 | 0.734 | 0.856
10 | NCI-H1915 | 0.584 | 0.619 | 0.684 | 0.637 | 0.575 | 0.57 | 0.689 | 0.505 | 0.595 | 0.909 | 0.825 | 0.947 | 0.866 | 0.263 | 0.26 | 0.276 | 0.264
11 | NCI-H1793 | 0.241 | 0.365 | 0.225 | 0.293 | 0.266 | 0.243 | 0.261 | 0.132 | 0.16 |  |  |  |  | 0.499 | 0.476 | 0.465 | 0.571
12 | NCI-H2342 | 0.677 | 0.574 | 0.785 | 0.692 | 0.542 | 0.586 | 0.568 | 0.448 | 0.471 |  |  |  |  | 0.791 | 0.785 | 0.716 | 0.662
13 | NCI-H1299 |  |  |  |  |  |  |  |  |  | 0.945 | 0.976 | 0.94 | 0.909 |  |  |  | 
14 | SW 900 | 0.445 | 0.539 | 0.546 | 0.409 | 0.45 | 0.471 | 0.433 |  | 0.492 |  |  |  |  | 0.448 | 0.501 | 0.412 | 0.373
15 | NCI-H1648 | 0.258 | 0.318 | 0.313 | 0.275 | 0.297 | 0.268 | 0.245 | 0.228 | 0.276 |  |  |  |  |  | 0.472 |  | 0.507
16 | NCI-H522 | 0.654 | 0.755 | 0.74 | 0.499 | 0.599 | 0.784 | 0.635 | 0.688 | 0.54 |  |  |  |  | 0.623 | 0.694 | 0.588 | 0.698
17 | NCI-H1395 | 0.715 | 0.731 | 0.677 | 0.419 | 0.519 | 0.433 | 0.553 | 0.393 | 0.44 |  |  |  |  | 0.712 | 0.71 | 0.743 | 0.706
18 | A549 |  |  |  |  |  |  |  |  |  | 0.803 | 0.638 | 0.966 | 0.736 | 0.227 | 0.238 | 0.263 | 
19 | NCI-H1563 | 0.748 | 0.713 | 0.773 | 0.729 | 0.771 | 0.749 | 0.738 | 0.7 | 0.619 | 0.829 | 0.853 | 0.809 | 0.794 |  |  |  | 
